ChEMBL document CHEMBL5550215, “Discovery of Novel Imidazo[1,2-a]pyridine-Based HDAC6 Inhibitors as an Anticarcinogen with a Cardioprotective Effect” (J Med Chem, 2024)

Legend:
H9c2 [1] = experiment: Protection against H2O2 induced myocardial cell injury in rat H9c2 cells at 10 uM pretreated for 24 hrs followed by H2O2 exposure and measured after 1.5 hrs (reference value: 17.91 to 57.32%); format: functional; conditions: time 25.5 hrs
H9c2 [2] = experiment: Protection against H2O2 induced myocardial cell injury in rat H9c2 cells assessed as fold change at 10 uM pretreated for 24 hrs followed by H2O2 exposure and measured after 1.5 hrs relative to H2O2 alone; format: functional; conditions: time 25.5 hrs
SMMC-7721 = experiment: Antiproliferative activity against human SMMC-7721 cells assessed as inhibition of cell growth by MTT assay
PC-3 = experiment: Antiproliferative activity against human PC-3 cells assessed as inhibition of cell growth by MTT assay
TE-1 = experiment: Antiproliferative activity against human TE-1 cells assessed as inhibition of cell growth by MTT assay
NCI-H460 = experiment: Antiproliferative activity against human NCI-H460 cells assessed as inhibition of cell growth by MTT assay
MGC-803 = experiment: Antiproliferative activity against human MGC-803 cells assessed as inhibition of cell growth by MTT assay
HCT-116 = experiment: Antiproliferative activity against human HCT-116 cells assessed as inhibition of cell growth by MTT assay
PANC-1 = experiment: Antiproliferative activity against human PANC-1 cells assessed as inhibition of cell growth by MTT assay

Cc1ccccc1-c1cc(CNc2ccc(C(=O)NO)cc2)c2nccn2c1
Activity (H9c2 [1]): 67.73%
fold change (FC) (H9c2 [2]): 1.38

Cc1ccc(-c2cc(CNc3ccc(C(=O)NO)cc3C)c3nccn3c2)cc1
Activity (H9c2 [1]): 53.88%
fold change (FC) (H9c2 [2]): 1.51

O=C(NO)c1ccc(NCc2cc(-c3cccc(Cl)c3)cn3ccnc23)cc1
IC50 (SMMC-7721): 2990 nM
IC50 (PC-3): > 10 µM
IC50 (TE-1): > 10000 nM
IC50 (NCI-H460): > 10 µM
IC50 (MGC-803): 3.82 µM
IC50 (HCT-116): > 10 µM
Activity (H9c2 [1]): 73.84%
IC50 (PANC-1): > 10 µM

COc1ccccc1-c1cc(CNc2ccc(C(=O)NO)cc2)c2nccn2c1
Activity (H9c2 [1]): 67.63%
fold change (FC) (H9c2 [2]): 1.9

Cc1ccc(-c2cc(CNc3ccc(C(=O)Nc4ccccc4N)cc3)c3nccn3c2)cc1
Activity (H9c2 [1]): 21.76%
fold change (FC) (H9c2 [2]): 1.21

COc1ccc(-c2cc(CNc3ccc(C(=O)NO)cc3)c3nccn3c2)c(OC)c1
Activity (H9c2 [1]): 56.04%
fold change (FC) (H9c2 [2]): 1.52

Cc1cccc(-c2cc(NCc3ccc(C(=O)NO)cc3)c3nccn3c2)c1
Activity (H9c2 [1]): 49.08%
fold change (FC) (H9c2 [2]): 1.01

COc1ccc(-c2cc(CNc3ccc(C(=O)NO)cc3)c3nccn3c2)cc1
Activity (H9c2 [1]): 57.47%
fold change (FC) (H9c2 [2]): 1.56

Cc1cccc(-c2cc(C(=O)NCc3ccc(C(=O)NO)cc3)c3nccn3c2)c1
IC50 (SMMC-7721): 1980 nM
IC50 (PC-3): > 10 µM
IC50 (TE-1): 2770 nM
IC50 (NCI-H460): > 10 µM
IC50 (MGC-803): 3.47 µM
IC50 (HCT-116): 5.7 µM
Activity (H9c2 [1]): 74.81%
IC50 (PANC-1): > 10 µM

Cc1ccccc1-c1cc(C(=O)NCc2ccc(C(=O)NO)cc2)c2nccn2c1
IC50 (SMMC-7721): 2600 nM
IC50 (PC-3): > 10 µM
IC50 (TE-1): 2560 nM
IC50 (NCI-H460): 8.67 µM
IC50 (MGC-803): 1.31 µM
IC50 (HCT-116): 9.49 µM
Activity (H9c2 [1]): 63.03%
IC50 (PANC-1): > 10 µM

Cc1ccccc1-c1cc(C(=O)Nc2ccc(C(=O)NO)cc2)c2nccn2c1
Activity (H9c2 [1]): 56.16%
fold change (FC) (H9c2 [2]): 1.57

COc1cc(-c2cc(C(=O)NCc3ccccc3)c3nccn3c2)cc(OC)c1OC
Activity (H9c2 [1]): 56.67%
fold change (FC) (H9c2 [2]): 0.99

Cc1ccc(-c2cc(CNc3ccc(C(=O)NNc4ccccc4)cc3)c3nccn3c2)cc1
Activity (H9c2 [1]): 64.68%
fold change (FC) (H9c2 [2]): 2.14

O=C(NO)c1ccc(CNc2cc(-c3ccc(F)cc3)cn3ccnc23)cc1
Activity (H9c2 [1]): 90.19%
fold change (FC) (H9c2 [2]): 1.86

Cc1ccc(-c2cc(CNc3ccc(C(=O)NOC4CCCCO4)cc3)c3nccn3c2)cc1 (stereo unspecified)
Activity (H9c2 [1]): 59.02%
fold change (FC) (H9c2 [2]): 1.69

Cc1ccc(-c2cc(CNc3ccc(C(=O)NO)cc3)c3nccn3c2)cc1
Activity (H9c2 [1]): 68.72%
fold change (FC) (H9c2 [2]): 1.93

O=C(NO)c1ccc(CNc2cc(-c3cccc(F)c3)cn3ccnc23)cc1
Activity (H9c2 [1]): 72.58%
fold change (FC) (H9c2 [2]): 1.5

Cc1ccc(-c2cc(CNc3ccc(C(=O)NNC(C)C)cc3)c3nccn3c2)cc1
Activity (H9c2 [1]): 54.92%
fold change (FC) (H9c2 [2]): 1.82

O=C(NO)c1ccc(NCc2cc(-c3ccccc3F)cn3ccnc23)cc1
Activity (H9c2 [1]): 57.23%
fold change (FC) (H9c2 [2]): 1.55

CCc1ccccc1-c1cc(CNc2ccc(C(=O)NO)cc2)c2nccn2c1
Activity (H9c2 [1]): 50.13%
fold change (FC) (H9c2 [2]): 2.01

Cc1cccc(-c2cc(C(=O)Nc3ccc(C(=O)NO)cc3)c3nccn3c2)c1
Activity (H9c2 [1]): 78.26%
fold change (FC) (H9c2 [2]): 2.19

COc1cc(-c2cc(C(=O)N3CCOCC3)c3nccn3c2)cc(OC)c1OC
Activity (H9c2 [1]): 34.81%
fold change (FC) (H9c2 [2]): 0.73

Cc1ccc(-c2cc(NCc3ccc(C(=O)NO)cc3)c3nccn3c2)cc1
Activity (H9c2 [1]): 74.15%
fold change (FC) (H9c2 [2]): 2.08

COc1ccccc1CNC(=O)c1ccc(NCc2cc(-c3ccc(C)cc3)cn3ccnc23)cc1
Activity (H9c2 [1]): 56.7%
fold change (FC) (H9c2 [2]): 1.88

CC(C)c1ccc(-c2cc(CNc3ccc(C(=O)NO)cc3)c3nccn3c2)cc1
Activity (H9c2 [1]): 54.12%
fold change (FC) (H9c2 [2]): 1.47

O=C(NO)c1ccc(NC(=O)c2cc(-c3ccc(F)cc3)cn3ccnc23)cc1
Activity (H9c2 [1]): 74.82%
fold change (FC) (H9c2 [2]): 2.11

COc1ccccc1NC(=O)c1ccc(NCc2cc(-c3ccc(C)cc3)cn3ccnc23)cc1
Activity (H9c2 [1]): 48.69%
fold change (FC) (H9c2 [2]): 1.61

O=C(NO)c1ccc(NCc2cc(-c3cccc(F)c3)cn3ccnc23)cc1
Activity (H9c2 [1]): 53.76%
fold change (FC) (H9c2 [2]): 1.46

COc1cc(-c2cc(C(=O)Nc3ccccc3)c3nccn3c2)cc(OC)c1OC
Activity (H9c2 [1]): 61.69%
fold change (FC) (H9c2 [2]): 1.23

Cc1cccc(-c2cc(CNc3ccc(C(=O)NO)cc3)c3nccn3c2)c1
Activity (H9c2 [1]): 50.3%
fold change (FC) (H9c2 [2]): 1.36

O=C(NO)c1ccc(NCc2cc(-c3ccc(F)cc3)cn3ccnc23)cc1
Activity (H9c2 [1]): 66.3%
fold change (FC) (H9c2 [2]): 1.86

O=C(NO)c1ccc(CNc2cc(-c3ccccc3F)cn3ccnc23)cc1
Activity (H9c2 [1]): 54.74%
fold change (FC) (H9c2 [2]): 1.13

Cc1ccc(-c2cc(CNc3ccc(C(=O)N4CCOCC4)cc3)c3nccn3c2)cc1
Activity (H9c2 [1]): 62.08%
fold change (FC) (H9c2 [2]): 2.05

Cc1ccccc1-c1cc(NCc2ccc(C(=O)NO)cc2)c2nccn2c1
Activity (H9c2 [1]): 67.83%
fold change (FC) (H9c2 [2]): 1.4

O=C(NO)c1ccc(NCc2cc(-c3ccccc3Cl)cn3ccnc23)cc1
Activity (H9c2 [1]): 57.08%
fold change (FC) (H9c2 [2]): 1.6

CCc1ccc(-c2cc(CNc3ccc(C(=O)NO)cc3)c3nccn3c2)cc1
Activity (H9c2 [1]): 63.8%
fold change (FC) (H9c2 [2]): 1.73

COc1cc(-c2cc(C(=O)NCCN3CCN(C(=O)OC(C)(C)C)CC3)c3nccn3c2)cc(OC)c1OC
Activity (H9c2 [1]): 49.54%
fold change (FC) (H9c2 [2]): 1.1

Cc1ccc(-c2cc(C(=O)Nc3ccc(C(=O)NO)cc3)c3nccn3c2)cc1
Activity (H9c2 [1]): 65.82%
fold change (FC) (H9c2 [2]): 1.84

Cc1ccc(-c2cc(CNc3ccc(C(=O)O)cc3)c3nccn3c2)cc1
Activity (H9c2 [1]): 18.02%
fold change (FC) (H9c2 [2]): 1.01

COc1cc(-c2cc(C(=O)NCCN3CCOCC3)c3nccn3c2)cc(OC)c1OC
Activity (H9c2 [1]): 36.19%
fold change (FC) (H9c2 [2]): 0.63

Cc1ccc(-c2cc(CNc3ccc(C(=O)NO)cc3Cl)c3nccn3c2)cc1
Activity (H9c2 [1]): 108.57%
fold change (FC) (H9c2 [2]): 2.79

Cc1ccc(-c2cc(CNc3ccc(C(=O)NN)cc3)c3nccn3c2)cc1
Activity (H9c2 [1]): 85.94%
fold change (FC) (H9c2 [2]): 2.63

Cc1ccc(-c2cc(CNc3ccc(C(=O)NNc4ccccc4F)cc3)c3nccn3c2)cc1
Activity (H9c2 [1]): 35.98%
fold change (FC) (H9c2 [2]): 1.19

O=C(NO)c1ccc(NCc2cc(-c3cccs3)cn3ccnc23)cc1
Activity (H9c2 [1]): 68.84%
fold change (FC) (H9c2 [2]): 1.87

Cc1ccc(-c2cc(CNc3ccc(C(=O)NNC(C)(C)C)cc3)c3nccn3c2)cc1
Activity (H9c2 [1]): 65.75%
fold change (FC) (H9c2 [2]): 2.17

Cc1ccc(-c2cc(CNc3ccc(C(=O)NO)cc3F)c3nccn3c2)cc1
Activity (H9c2 [1]): 52.82%
fold change (FC) (H9c2 [2]): 1.36

Cc1ccc(-c2cc(CNc3ccc(C(=O)NO)cn3)c3nccn3c2)cc1
Activity (H9c2 [1]): 58.82%
fold change (FC) (H9c2 [2]): 1.27

Cc1ccc(-c2cc(CNc3ccc(C(=O)NNC(=O)OC(C)(C)C)cc3)c3nccn3c2)cc1
Activity (H9c2 [1]): 64.23%
fold change (FC) (H9c2 [2]): 2.12

COc1cc(-c2cc(C(=O)NCCN3CCN(C(=O)OC(C)(C)C)CC3)c3ccccc3n2)cc(OC)c1OC
Activity (H9c2 [1]): 53.37%
fold change (FC) (H9c2 [2]): 1.19
